From US8697739B2, “Bicyclic acetyl-CoA carboxylase inhibitors and uses thereof” (Novartis AG, priority 2010, dated 2014)
pEC50, pIC50: −log10 of the molar value.

Legend:
[1] = molecular target: T1, human acetyl-CoA carboxylase 2 (ACC2) (Homo sapiens, UniProt O00763); test: Acetyl-CoA carboxylase enzyme assay (malonyl-CoA formation by LC/MS/MS); assay type: biochemical; conditions: recombinant human ACC2 (aa 144-2458); read-out: IC50 ACC2
T1 construct: The cDNA encoding amino acids 144 to 2458 of human acetyl-CoA carboxylase 2; made in house; host or cells: Sf9 insect cells (baculovirus, pFastBac1)
T1 sequence (O00763 144-2458): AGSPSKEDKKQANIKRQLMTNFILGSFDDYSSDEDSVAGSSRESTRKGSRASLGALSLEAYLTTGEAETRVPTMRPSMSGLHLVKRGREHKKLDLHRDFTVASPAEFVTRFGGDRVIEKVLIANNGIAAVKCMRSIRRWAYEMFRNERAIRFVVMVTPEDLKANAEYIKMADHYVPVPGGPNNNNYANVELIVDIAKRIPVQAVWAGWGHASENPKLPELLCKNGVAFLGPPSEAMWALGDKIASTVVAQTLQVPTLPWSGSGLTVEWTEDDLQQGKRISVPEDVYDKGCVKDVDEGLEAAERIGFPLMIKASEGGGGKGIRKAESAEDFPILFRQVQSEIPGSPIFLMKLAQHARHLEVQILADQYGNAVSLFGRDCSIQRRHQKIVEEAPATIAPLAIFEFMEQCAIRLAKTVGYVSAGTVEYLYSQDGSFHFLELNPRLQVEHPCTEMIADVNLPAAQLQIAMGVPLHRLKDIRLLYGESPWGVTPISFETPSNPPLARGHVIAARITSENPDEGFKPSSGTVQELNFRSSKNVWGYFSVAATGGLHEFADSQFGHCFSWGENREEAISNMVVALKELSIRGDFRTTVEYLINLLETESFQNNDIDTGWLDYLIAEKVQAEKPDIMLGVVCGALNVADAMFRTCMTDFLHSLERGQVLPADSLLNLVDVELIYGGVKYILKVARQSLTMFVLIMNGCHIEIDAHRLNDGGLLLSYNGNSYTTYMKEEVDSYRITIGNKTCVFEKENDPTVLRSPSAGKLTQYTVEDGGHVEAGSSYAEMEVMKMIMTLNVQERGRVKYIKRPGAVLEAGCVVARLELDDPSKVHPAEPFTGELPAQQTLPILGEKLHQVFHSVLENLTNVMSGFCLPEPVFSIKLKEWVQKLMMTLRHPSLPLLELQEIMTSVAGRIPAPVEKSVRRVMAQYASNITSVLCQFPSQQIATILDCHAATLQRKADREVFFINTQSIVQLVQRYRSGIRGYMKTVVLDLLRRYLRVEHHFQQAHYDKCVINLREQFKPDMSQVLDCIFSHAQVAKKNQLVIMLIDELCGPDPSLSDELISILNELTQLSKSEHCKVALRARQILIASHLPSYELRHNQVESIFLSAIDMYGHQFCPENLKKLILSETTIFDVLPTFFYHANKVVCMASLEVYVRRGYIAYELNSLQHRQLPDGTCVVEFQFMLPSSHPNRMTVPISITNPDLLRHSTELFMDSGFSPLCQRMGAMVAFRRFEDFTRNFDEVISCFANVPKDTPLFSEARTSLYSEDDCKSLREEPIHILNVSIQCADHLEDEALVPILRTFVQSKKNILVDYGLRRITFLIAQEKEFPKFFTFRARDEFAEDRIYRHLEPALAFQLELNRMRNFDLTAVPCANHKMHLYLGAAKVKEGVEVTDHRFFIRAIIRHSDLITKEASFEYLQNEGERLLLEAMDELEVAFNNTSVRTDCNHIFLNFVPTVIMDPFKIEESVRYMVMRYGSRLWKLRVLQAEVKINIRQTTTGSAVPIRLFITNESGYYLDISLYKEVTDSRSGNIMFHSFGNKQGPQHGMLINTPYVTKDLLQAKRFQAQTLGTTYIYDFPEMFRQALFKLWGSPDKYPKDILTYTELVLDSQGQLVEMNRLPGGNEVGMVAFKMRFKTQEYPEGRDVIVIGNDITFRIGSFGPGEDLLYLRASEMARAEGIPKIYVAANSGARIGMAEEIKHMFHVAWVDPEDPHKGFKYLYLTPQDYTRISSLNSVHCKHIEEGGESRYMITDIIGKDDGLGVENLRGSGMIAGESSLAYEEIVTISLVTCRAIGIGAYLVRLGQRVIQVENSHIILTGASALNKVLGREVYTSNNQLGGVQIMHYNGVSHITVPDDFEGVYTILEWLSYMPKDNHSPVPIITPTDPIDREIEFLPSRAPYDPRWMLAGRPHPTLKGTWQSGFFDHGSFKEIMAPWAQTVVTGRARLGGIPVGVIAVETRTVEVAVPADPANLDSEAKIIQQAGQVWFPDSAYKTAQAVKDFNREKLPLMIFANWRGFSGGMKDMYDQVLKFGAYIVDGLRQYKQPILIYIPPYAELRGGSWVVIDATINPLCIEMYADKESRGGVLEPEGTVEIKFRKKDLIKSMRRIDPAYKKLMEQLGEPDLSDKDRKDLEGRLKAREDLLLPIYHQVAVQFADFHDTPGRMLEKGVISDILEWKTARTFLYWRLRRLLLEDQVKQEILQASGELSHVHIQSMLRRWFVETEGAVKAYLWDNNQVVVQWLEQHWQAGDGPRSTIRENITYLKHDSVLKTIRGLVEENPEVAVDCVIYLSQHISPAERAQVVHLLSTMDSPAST
Summary of the method: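 Malonyl-CoA formation was read by LC/MS/MS MRM against a [13C3]-malonyl-CoA internal standard, after acetic acid quench. The enzyme was baculovirus/Sf9-expressed human ACC2 residues 144–2458, given 15 minutes room-temperature compound preincubation in HEPES pH 7.5 buffer with MgCl2, citrate and DTT. Substrate solution held 50 μM acetyl-CoA, 120 μM ATP and 2 mM KHCO3.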

[2] = tested on: HCVcc genotype 2a (JFH-1 strain) virus; test: HCV assay: JFH-1 rLuc infection of Huh 7.5 cells, renilla luciferase readout; assay type: cell-based; conditions: Hepatitis C virus, Huh7.5; JFH-1 rLuc virus, MOI=0.01, Huh 7.5 cells, 72 hours, luciferase activity reduced by 50%
Description: (§1) The effect of compounds on HCV infection was determined in vitro using cell cultured (HCVcc) genotype 2a (JFH-1 strain) virus. A renilla luciferase reporter gene was inserted in the viral genome, the expression of which was under the control of HCV 5′UTR (JFH-1^rLuc). Thus, the inhibition of HCV infection or replication can be indirectly measured by the reduction of luciferase activity in the cells. A specifically adapted hepatoma cell line, Huh 7.5, which allowed higher infectivity of HCV in vitro, was cultured in Dulbecco's modified Eagle's medium (DMEM) supplemented with 2 mM L-glutamine, 0.1 mM non-essential amino acids and 10% heat-inactivated fetal bovine serum. The cells were infected with JFH-1^rLuc virus at an MOI=0.01 and were treated at the same time with serially diluted compounds. After 72 hours, luciferase activities in compound-treated cells were measured using the Renilla Luciferase Assay System (Promega) and were compared to those in untreated control cells. Concentration-dependent inhibition curves were generated, from which EC50 values, the concentrations of compounds at which luciferase activities were reduced by 50% relative to untreated control, were calculated. In parallel, cytotoxicity of compounds was determine by measuring the viability of compound-treated cells using CellTiter 96® AQueous One Solution Cell Proliferation Assay (Promega). CC50 represented the concentration of the compound at which cell viability was reduced by 50% compared to untreated control.

in vitro = assay type: cell-based; conditions: human
Description: as §1

Row | Compound | pIC50 [1] | pEC50 [2] | CC50 at 72 h (in vitro)
1 | O=C([C@H]1CC[C@H](NS(=O)(=O)c2ccc3c(Cl)c(-c4ccccc4)[nH]c3c2)CC1)N1CCOC[C@@H]1C1CC1 [Example 474, 3-chloro-N-((1S,4r)-4-((S)-3-cyclopropylmorpholine-4-carbonyl)cyclohexyl)-2-phenyl-1H-indole-6-sulfonamide] | > 8.00 | 7.54 | > 67000 nM
2 | COC(=O)CCc1ccc(-c2cc3ccc(S(=O)(=O)N[C@H]4CC[C@H](C(=O)N5CCOC[C@@H]5C5CC5)CC4)cc3n2C)cc1 [Example 473, methyl 3-(4-(6-(N-((1S,4r)-4-((S)-3-cyclopropylmorpholine-4-carbonyl)cyclohexyl)sulfamoyl)-1-methyl-1H-indol-2-yl)phenyl)propanoate] | > 8.00 | 6.70 | > 33000 nM
3 | CC(C)[C@H]1COCCN1C(=O)[C@H]1CC[C@H](NS(=O)(=O)c2ccc3cc(-c4ccc(CCC(=O)O)cc4)n(C)c3c2)CC1 [Example 29, 3-(4-(6-(N-((1S,4r)-4-((S)-3-isopropylmorpholine-4-carbonyl)cyclohexyl)sulfamoyl)-1-methyl-1H-indol-2-yl)phenyl)propanoic acid] | > 8.00 | 5.62 | > 33000 nM
4 | CC(C)[C@H]1COCCN1C(=O)[C@H]1CC[C@H](NS(=O)(=O)c2ccc3c(Cl)c(-c4ccc(CCC(=O)O)cc4)n(C)c3c2)CC1 [Example 25, 3-(4-(3-chloro-6-(N-((1S,4r)-4-((S)-3-isopropylmorpholine-4-carbonyl)cyclohexyl)sulfamoyl)-1-methyl-H-indol-2-yl)phenyl)propanoic acid] | > 8.00 | 6.17 | > 33000 nM
5 | Cn1c(C2CC2)cc2ccc(S(=O)(=O)N[C@H]3CC[C@H](C(=O)N4CCCC(C(C)(C)O)C4)CC3)cc21 (stereo partly drawn) [Example 368, 2-cyclopropyl-N-((1r,4r)-4-(3-(2-hydroxypropan-2-yl)piperidine-1-carbonyl)cyclohexyl)-1-methyl-1H-indole-6-sulfonamide] | 6.84 | – | –
6 | C[C@@H](NC(=O)[C@H]1CC[C@H](NS(=O)(=O)c2ccc3cc(C4CC4)[nH]c3c2)CC1)c1ccccn1 [Example 294, (1r,4R)-4-(2-cyclopropyl-1H-indole-6-sulfonamido)-N-((R)-1-(pyridin-2-yl)ethyl)cyclohexanecarboxamide] | 6.55 | – | –
7 | C[C@@H](NC(=O)[C@H]1CC[C@H](NS(=O)(=O)c2ccc3cc(CCOS(C)(=O)=O)[nH]c3c2)CC1)c1ccc(F)cc1 [Example 306, 2-(6-(N-((1R,4r)-4-((R)-1-(4-fluorophenyl)ethylcarbamoyl)cyclohexyl)sulfamoyl)-1H-indol-2-yl)ethyl methanesulfonate] | 7.30 | – | –
8 | CC(NC(=O)[C@H]1CC[C@H](NS(=O)(=O)c2cnc3ccccc3c2)CC1)c1cccc(F)c1 (stereo partly drawn) [Example 44, (1r,4r)-N-(1-(3-fluorophenyl)ethyl)-4-(quinoline-3-sulfonamido)cyclohexanecarboxamide] | 6.35 | – | –
9 | CC(C)CC1CCc2cc(S(=O)(=O)N[C@H]3CC[C@H](C(=O)N[C@H](C)c4ccc(F)cc4)CC3)ccc2N1 (stereo partly drawn) [Example 167, (1r,4R)-N-((R)-1-(4-fluorophenyl)ethyl)-4-(2-isobutyl-1,2,3,4-tetrahydroquinoline-6-sulfonamido)cyclohexanecarboxamide] | 6.69 | – | –
10 | CC(NC(=O)[C@H]1CC[C@H](NS(=O)(=O)c2ccc3cc(Cl)ccc3c2)CC1)c1cccnc1 (stereo partly drawn) [Example 681, (1r,4r)-4-(6-chloronaphthalene-2-sulfonamido)-N-(1-(pyridin-3-yl)ethyl)cyclohexanecarboxamide] | 6.85 | – | –
11 | Cc1ccccc1-c1cc2ccc(S(=O)(=O)N[C@H]3CC[C@H](C(=O)N4CCN[C@@H](C(F)(F)F)C4)CC3)cc2[nH]1 [Example 343, 2-o-tolyl-N-((1R,4r)-4-((R)-3-(trifluoromethyl)piperazine-1-carbonyl)cyclohexyl)-1H-indole-6-sulfonamide] | 6.77 | – | –
12 | CN(Cc1ccccc1)C(=O)[C@H]1CC[C@H](NS(=O)(=O)c2ccc3[nH]c(-c4ccccc4)nc3c2)CC1 [Example 619, (1r,4r)-N-benzyl-N-methyl-4-(2-phenyl-1H-benzo[d]imidazole-5-sulfonamido)cyclohexanecarboxamide] | 6.25 | – | –
13 | CN1CCN(C)c2ncc(S(=O)(=O)N[C@H]3CC[C@H](C(=O)N4CCN(C(=O)OCc5ccccc5)CC4c4ccccc4)CC3)cc21 (stereo partly drawn) [Example 180, benzyl 4-((1r,4r)-4-(1,4-dimethyl-1,2,3,4-tetrahydropyrido[3,2-b]pyrazine-7-sulfonamido)cyclohexanecarbonyl)-3-phenylpiperazine-1-carboxylate] | 6.86 | – | –
14 | CC(NC(=O)[C@H]1CC[C@H](NS(=O)(=O)c2cnc3ccccc3c2)CC1)c1ccc(F)c(F)c1 (stereo partly drawn) [Example 66, (1r,4r)-N-(1-(3,4-difluorophenyl)ethyl)-4-(quinoline-3-sulfonamido)cyclohexanecarboxamide] | 6.69 | – | –
15 | O=C(Nc1cc(F)cc(F)c1)[C@H]1CC[C@H](NS(=O)(=O)c2ccc3[nH]c(-c4ccccc4)nc3c2)CC1 [Example 646, (1r,4r)-N-(3,5-difluorophenyl)-4-(2-phenyl-1H-benzo[d]imidazole-5-sulfonamido)cyclohexanecarboxamide] | 5.87 | – | –
16 | CC(C)c1nnc(-c2ccc(NS(=O)(=O)c3ccc4[nH]c(Nc5ccccc5)nc4c3)cc2)o1 [Example 601, N-(4-(5-isopropyl-1,3,4-oxadiazol-2-yl)phenyl)-2-(phenylamino)-1H-benzo[d]imidazole-5-sulfonamide] | 6.27 | – | –
17 | CC(C)N1CCN(C(C)C)c2ncc(S(=O)(=O)N[C@H]3CC[C@H](C(=O)N[C@H](C)c4ccc(F)cc4)CC3)cc21 [Example 143, (1r,4R)-4-(1,4-diisopropyl-1,2,3,4-tetrahydropyrido[3,2-b]pyrazine-7-sulfonamido)-N-((R)-1-(4-fluorophenyl)ethyl)cyclohexanecarboxamide] | 6.49 | – | –

More lines, main results first:

Row | pIC50 [1] | Compound | pEC50 [2] | CC50 at 72 h (in vitro)
18 | 7.10 | COCCNc1ccc2cc(S(=O)(=O)N[C@H]3CC[C@H](C(=O)N[C@H](C)c4ccc(F)cc4)CC3)ccc2n1 [Example 201, (1r,4R)-N-((R)-1-(4-fluorophenyl)ethyl)-4-(2-(2-methoxyethylamino)quinoline-6-sulfonamido)cyclohexanecarboxamide] | – | –
19 | 7.10 | C[C@H]1COCCN1C(=O)[C@H]1CC[C@H](NS(=O)(=O)c2ccc3c(C#N)c(C4CC4)n(C)c3c2)CC1 [Example 414, 3-cyano-2-cyclopropyl-1-methyl-N-((1S,4r)-4-((S)-3-methylmorpholine-4-carbonyl)cyclohexyl)-1H-indole-6-sulfonamide] | – | –
20 | 8.00 | C[C@@H](NC(=O)[C@H]1CC[C@H](NS(=O)(=O)c2ccc3c(c2)Cc2ccccc2-3)CC1)c1ccc(F)cc1 [Example 226, (1r,4R)-4-(9H-fluorene-2-sulfonamido)-N-((R)-1-(4-fluorophenyl)ethyl)cyclohexanecarboxamide] | – | –
21 | 7.70 | CCOc1ccc2cc(S(=O)(=O)NC3CCC(C(=O)NC(CO)c4ccccc4)CC3)ccc2n1 [Example 205, (1r,4S)-4-(2-ethoxyquinoline-6-sulfonamido)-N-((S)-2-hydroxy-1-phenylethyl)cyclohexanecarboxamide] | – | –
22 | 7.96 | C[C@@H](NC(=O)[C@H]1CC[C@H](NS(=O)(=O)c2ccc3cc(-c4ccccc4CO)[nH]c3c2)CC1)c1ccc(F)cc1 [Example 299, (1r,4R)-N-((R)-1-(4-fluorophenyl)ethyl)-4-(2-(2-(hydroxymethyl)phenyl)-1H-indole-6-sulfonamido)cyclohexanecarboxamide] | – | –
23 | > 8.00 | Cc1cc(CO)ccc1-c1cc2ccc(S(=O)(=O)N[C@H]3CC[C@H](C(=O)N4CCNC[C@@H]4c4ccccc4)CC3)cc2[nH]1 [Example 313, 2-(4-(hydroxymethyl)-2-methylphenyl)-N-((1S,4r)-4-((S)-2-phenylpiperazine-1-carbonyl)cyclohexyl)-1H-indole-6-sulfonamide] | – | –
24 | 6.90 | C[C@@H](NC(=O)[C@H]1CC[C@H](NS(=O)(=O)c2ccc3nc(NCCN(C)C)ccc3c2)CC1)c1ccc(F)cc1 [Example 215, (1r,4R)-4-(2-(2-(dimethylamino)ethylamino)quinoline-6-sulfonamido)-N-((R)-1-(4-fluorophenyl)ethyl)cyclohexanecarboxamide] | – | –
25 | > 8.00 | Cn1c(-c2ccccc2)cc2cc(S(=O)(=O)N[C@H]3CC[C@H](C(=O)N[C@@H](c4ccccc4)C(C)(C)O)CC3)ccc21 [Example 15, (1r,4S)—N—((S)-2-hydroxy-2-methyl-1-phenylpropyl)-4-(1-methyl-2-phenyl-1H-indole-5-sulfonamido)cyclohexanecarboxamide] | – | –
